# According to PMC2361459, “Safety, tolerability and pharmacokinetics of intravenous ghrelin for cancer-related anorexia/cachexia: a randomised, placebo-controlled, double-blind, double-crossover study” (British Journal of Cancer, 2008):
# Experiments:
# cancer patients = details: seven cancer patients; 5 pmol kg^−1 min^−1 for 180 min equals 3 μg kg^−1; no adverse effects; ref Neary et al, 2004; cited from earlier work
# Excerpt: In melanoma-bearing nude mice, ghrelin plasma concentration increased with cachexia progression ([Hanada et al, 2004]). In cancer patients with cachexia (various cancers, n=21 ([Garcia et al, 2005]); breast and colorectal cancer, n=18 ([Wolf et al, 2006]); lung cancer, n=21 ([Shimizu et al, 2003])), ghrelin morning fasting levels were 1.3- to 1.5-fold higher than in those without cachexia and healthy controls. In contrast, ghrelin levels were normal in subgroups of patients in one study (39%) ([Wolf et al, 2006]) and all patients in another study (gastric and colorectal cancer, n=58) ([Huang e ...
# [1] = tested on: patients with advanced incurable cancer and anorexia/cachexia; test: Autonomic function: standard deviation of beat-to-beat intervals (SDNN); type: in vivo, human; details: UD (n=9), ghrelin, P=NS
# Protocol: Autonomic dysfunction was assessed as described previously ([Strasser et al, 2006]). Standard deviation of beat-to-beat intervals (SDNN) was analysed at baseline and at end of study for 20 min in both the LD and UD; and in the UD, in addition, 30 min before infusion until after lunch on treatment days.
# (§1) All analyses were performed with SPSS (Version 11.5).
# [2] = tested on: patients with advanced incurable cancer and anorexia/cachexia; test: Radiological tumour measurements; type: in vivo, human
# Protocol: Patients were assessed at each visit by using the NCI-CTC toxicity criteria Version 3.0, including standard blood examinations (hematology, chemistry panels), and cardiology evaluations, including echocardiography at baseline and at end of study. […] On study day 7 and at end of study, patients were asked about their perception of their tolerance and preference of day 1 (and 7) vs day 4 (and 11) treatments. […] An independent radiologist reviewed all films made before baseline, at baseline, and at end of study to judge tumour size and dynamics.
# [3] = tested on: patients with advanced incurable cancer and anorexia/cachexia; details: in vivo
# Protocol: In a randomised, double-blind, placebo-controlled, double-crossover trial, 4–5 days after baseline, patients received ghrelin on days 1 and 8 and placebo on days 4 and 11 or vice versa; end of study was day 17/18 (Figure 1).
# On treatment days, patients ingested only water from midnight to breakfast. In the outpatient clinic, safety laboratory values and fasting hormone blood samples (including testosterone in male patients) were drawn at 0800 hours; venous access was maintained for pharmacokinetics. Patients received a standardised breakfast (120 g bread, 20 g butter, 60 g jam, 200 ml coffee with milk). At 1000 hours, a second i.v. line was inserted in the other arm for treatment given from 1030 to 1130 hours. Immediately after the end of the infusion, patients walked for approximately 5 min the 90 m to the restaurant where they received priority serving, starting the meal within 5 min.
# Ghrelin of Good Manufacturing Practice quality was purchased from Clinalfa (Merck Biosciences, Switzerland) as vials of 88 μg, stored at −20°C, and dissolved in 250 ml normal saline by the hospital pharmacy immediately before application. The treatment was titrated up within the first 10 min (20% increase each 2 min) and maintained for the next 50 min. The lower-dose group (LD) received 10 pmol kg^−1 min^−1 (equals 0.0336 μg kg^−1 min^−1, approximately 2 μg kg^−1). […] After observing treatment tolerance in the LD patients, we administered the upper-dose group (UD) 40 pmol kg^−1 min^−1 (approximately 8 μg kg^−1). Normal saline was used as placebo.
# Patients were assessed at each visit by using the NCI-CTC toxicity criteria Version 3.0, including standard blood examinations (hematology, chemistry panels), and cardiology evaluations, including echocardiography at baseline and at end of study. During the treatment phase, research personnel regularly contacted patients at home during the daytime to check for their safety. […] On study day 7 and at end of study, patients were asked about their perception of their tolerance and preference of day 1 (and 7) vs day 4 (and 11) treatments.
# growth hormone (GH) = test: Serum growth hormone (GH) response to i.v. ghrelin (IRMA); type: in vivo, human
# Protocol: (§2) Normal saline was used as placebo.
# (§3) For ghrelin assays, 5 ml blood was collected in a precooled EDTA vacutainer tube containing aprotinin (33 kIU), placed immediately on ice, and centrifuged (4°C, 3000 G, 5 min). For each millilitre of plasma, 10 μl PMSF-Isopropanol, 50 μl 1N-HCL, and 50 μl aprotinin were added, and aliquots were stored at −80°C until batch analysis. Serum was collected and cooled for GH, insulin-like growth factor 1 (IGF-1), interleukin-6 (IL-6), and leptin analysis. Testosterone radioimmunoassays (Diagnostic Products Corporation; Bühlmann, Salzburg, Austria) were performed from serum sent to routine safety labs. The radioimmunoassay kits used for total and active ghrelin were from Linco Research (St Charles, MO, USA); for GH (active GH IRMA immunoradiometric assay) from Diagnostic Systems Laboratory (Webster, TX, USA); for IGF-1 (human, bovine) from Peninsula Laboratories (San Carlos, CA, USA); for IL-6 (Quantikine human ELISA) from R&D Systems (Minneapolis, MN, USA); and for leptin (human RIA) from Millipore (Billerica, MA, USA).
# as §1
# [4] = tested on: patients with advanced incurable cancer and anorexia/cachexia; details: human, in vivo
# Excerpt: On study day 7 and at end of study, patients were asked about their perception of their tolerance and preference of day 1 (and 7) vs day 4 (and 11) treatments.
# For exploratory analyses of patients' preference of treatment, we used the exact binominal test.
# [5] = design: species or system human; details: in vivo
# Protocol: as §2, §3, §1
# interleukin-6 = test: Plasma IL-6 levels (ELISA); type: in vivo, human; details: throughout the treatment period; results not shown
# Protocol: as §3
# [6] = tested on: insulin-like growth factor 1; test: Serum insulin-like growth factor 1 (IGF-1) levels; type: in vivo, human
# Protocol: as §3, §1
# [7] = stated in discussion, no reference given; cited from earlier work
# Protocol: Ghrelin levels were normal before infusion at 1030 hours. Renal function was not impaired. These unexpected findings of total, but not active, ghrelin remain unexplained at present but may indeed be without any physiological significance.
structure (smiles),measurement,setting,value
CCCCCCCC(=O)OC[C@H](NC(=O)[C@H](CO)NC(=O)CN)C(=O)N[C@@H](Cc1ccccc1)C(=O)N[C@@H](CC(C)C)C(=O)N[C@@H](CO)C(=O)N1CCC[C@H]1C(=O)N[C@@H](CCC(=O)O)C(=O)N[C@@H](Cc1cnc[nH]1)C(=O)N[C@@H](CCC(N)=O)C(=O)N[C@@H](CCCNC(=N)N)C(=O)N[C@H](C(=O)N[C@@H](CCC(N)=O)C(=O)N[C@@H](CCC(N)=O)C(=O)N[C@@H](CCCNC(=N)N)C(=O)N[C@@H](CCCCN)C(=O)N[C@@H](CCC(=O)O)C(=O)N[C@@H](CO)C(=O)N[C@@H](CCCCN)C(=O)N[C@@H](CCCCN)C(=O)N1CCC[C@H]1C(=O)N1CCC[C@H]1C(=O)N[C@@H](C)C(=O)N[C@@H](CCCCN)C(=O)N[C@@H](CC(C)C)C(=O)N[C@@H](CCC(N)=O)C(=O)N1CCC[C@H]1C(=O)N[C@@H](CCCNC(=N)N)C(=O)O)C(C)C [ghrelin],"energy intake with i.v. ghrelin, higher than with placebo",cancer patients,31%
same,mean SDNN,"[1]; week 1, placebo 78±35",84 ± 40 ms
same,mean SDNN,"[1]; week 2, placebo 80±27",75 ± 35 ms
same,patients with progressive disease (PD) during the study period,"[2]; both dose groups, crossover ghrelin/placebo",two
same,tumour-growth dynamics,[2]; short intervals of tumour measurements,no major unexpected tumour-growth dynamics
same,"abdominal pain, between infusion days (drug-related adverse events, grade 1 or 2)",[3],2
same,"abdominal pain, during infusion on treatment days (drug-related adverse events, grade 1 or 2)",[3],3
same,"abnormal liver tests or low potassium, possibly or probably related adverse events",[3],three
same,"asthenia, during infusion on treatment days (drug-related adverse events, grade 1 or 2)",[3],1
same,body temperature and oxygen saturation during and after the infusion,[3],remained unchanged
same,"diarrhea, between infusion days (drug-related adverse events, grade 1 or 2)",[3],1
same,"dry mouth, during infusion on treatment days (drug-related adverse events, grade 1 or 2)",[3],3
same,"increased CRP, possibly or probably related adverse events",[3],two
same,"nausea, between infusion days (drug-related adverse events, grade 1 or 2)",[3],1
same,"shortness of breath (overeaten, aspiration), during infusion on treatment days (drug-related adverse events, grade 1 or 2)",[3],1
same,"sweating, during infusion on treatment days (drug-related adverse events, grade 1 or 2)",[3],2
same,"vomiting, between infusion days (drug-related adverse events, grade 1 or 2)",[3],1
same,"worsening of pre-existing neuropathy, during infusion on treatment days (drug-related adverse events, grade 1 or 2)",[3],1
same,mean difference of the peak GH levels (of week 1 and week 2) compared to baseline,"growth hormone (GH); LD, 10 pmol kg^−1 min^−1 (about 2 μg kg^−1) i.v., SD 6, P=0.004 vs UD",28 ng/mL
same,mean difference of the peak GH levels (of week 1 and week 2) compared to baseline,"growth hormone (GH); UD, 40 pmol kg^−1 min^−1 (about 8 μg kg^−1) i.v., SD 20, P=0.004 vs LD",50 ng/mL
same,peak increase of GH,"growth hormone (GH); upper-dose ghrelin 8 μg kg^−1 i.v. over 60 min, cancer patients",42 ng/mL
same,mean scores for tolerability of the study medication immediately after infusion and after lunch,[4],did not differ between ghrelin and placebo
same,morning fasting total ghrelin levels 3 days after the prior ghrelin infusion compared to after placebo,[5],elevated
same,plasma levels of IL-6,interleukin-6,did not change
same,mean IGF-1 at day 17/18,"[6]; LD (n=7), ±994",1359 pg per 100 μl
same,mean IGF-1 at day 17/18,"[6]; UD (n=9), ±495",1096 pg per 100 μl
same,insulin-like growth factor 1 levels,"[6]; both dose groups, over the study",did not change
same,half-life,[7],approximately 15 min
